# Assay results published in US8759400B2, “Histone deacetylase inhibitors for enhancing activity of antifungal agents” (MethylGene Inc., priority 2005, dated 2014).
# Read-outs that look alike come from different tables or passages of the source.
# How the values were obtained:
# HDAC [1] = assay: HDAC inhibitory activity in fungal protoplasts (Fluor-de-Lys); type: cell-based, Candida albicans; details: C. albicans protoplasts
# Method: (§1) Protoplasts of C. albicans and C. glabrata are prepared by the […] method of Franzusoff et al.
# C. glabrata (ATCC 90030) [2] = assay: MIC80 and checkerboard synergy with antifungal agents; type: cell-based, Candida glabrata
# C. albicans (ATCC 90028) = assay: as above; type: cell-based, Candida albicans
# HMEC [3] = details: human
# HDAC [4] = assay: HDAC inhibitory activity in fungal protoplasts (Fluor-de-Lys); type: cell-based, Candida glabrata; details: C. glabrata protoplasts
# Method: as §1
# A. fumigatus ATCC 1022 = assay: MIC80 and checkerboard synergy, broth microdilution (NCCLS M38-A); type: cell-based, Aspergillus fumigatus; details: for conc. for 4-fold synergy: 48 hours
# HDAC [5] = assay: HDAC inhibitory activity in fungal protoplasts (Boc-Lys(Ac)-AMC); type: cell-based, Aspergillus fumigatus; details: A. fumigatus protoplasts
# HMEC [6] = assay: Mammalian cytotoxicity, MTT reduction
# C. dubliniensis = assay: Clinical isolates, CLSI M27-A2 broth microdilution and checkerboard; type: cell-based; details: Candida dubliniensis
# C. glabrata (ATCC 90030) [7] = type: cell-based; details: agar plates containing 4×MIC of the relevant azole alone
# [8] = Candida albicans, ATCC90028, compound alone, C. albicans (ATCC 90028), read-out: MIC80
# [9] = Nakaseomyces glabratus, ATCC90030, compound alone, C. glabrata (ATCC 90030), read-out: MIC80
# [10] = with ketoconazole, A. fumigatus ATCC 1022
# [11] = with fluconazole, A. fumigatus ATCC 1022
# [12] = with itraconazole, A. fumigatus ATCC 1022
# [13] = with voriconazole, A. fumigatus (ATCC 1022)
molecule,measurement,setting,value
O=C(NO)c1ccc(CN2c3ccccc3NC(=O)[C@H]2Cc2cccc(C(F)(F)F)c2)cc1 [Cpd 23],HDAC inhibition IC50,HDAC [1],~0.6 µg/mL
"CC(Cc1ccc(C(C)(C)C)cc1)CN1C[C@@H](C)O[C@@H](C)C1 (stereo partly drawn) [Fenpropimorph, fenpropimorph, reference compound]",MIC,"C. glabrata (ATCC 90030) [2]; Nakaseomyces glabratus, ATCC90030, fenpropimorph alone, C. glabrata, read-out: Fenpropimorph MIC",6.25 µg/mL
"O=C(/C=C/c1ccc(CN(CCO)CCc2c[nH]c3ccccc23)cc1)NO [LAQ-824, reference compound]",MIC,C. albicans (ATCC 90028); [8],> 128 µg/mL
same,MIC,C. glabrata (ATCC 90030) [2]; [9],> 64 µg/mL
same,MTT HMEC,HMEC [3],0.75 µM
same,HDAC inhibition IC50,HDAC [4],0.01 µg/mL
same,MIC,"A. fumigatus ATCC 1022; Aspergillus fumigatus, ATCC1022, 48 h, compound alone, A. fumigatus ATCC 1022, read-out: MIC80",> 128 µg/mL
same,conc. for 4-fold synergy,A. fumigatus ATCC 1022; [10],>128 µg/mL
same,HDAC inhibition IC50,HDAC [5],0.01 µg/mL
same,HDAC inhibition IC50,HDAC [1],0.01 µg/mL
"C[C@@H]([C@H](N)C(=O)N[C@H](C(=O)O)[C@H]1O[C@@H](n2ccc(=O)[nH]c2=O)[C@H](O)[C@@H]1O)[C@H](O)c1ccc(O)cn1 [Nikkomycin, nikkomycin, reference compound]",MIC,"C. albicans (ATCC 90028); Candida albicans, ATCC90028, read-out: Nikkomycin MIC",100 µg/mL
"O=C(CCCCCCC(=O)Nc1ccccc1)NO [SAHA, suberoylanilide hydroxamic acid, reference compound]",MIC80,C. albicans (ATCC 90028); [8],> 128 µg/mL
same,MIC80,C. glabrata (ATCC 90030) [2]; [9],> 64 µg/mL
same,MTT HMEC,HMEC [6],18 µM
"CC(/C=C/C(=O)NO)=C\[C@@H](C)C(=O)c1ccc(N(C)C)cc1 [TSA, trichostatin A, reference compound]",MIC80,C. albicans (ATCC 90028); [8],> 128 µg/mL
same,MIC80,C. glabrata (ATCC 90030) [2]; [9],64 µg/mL
same,HDAC inhibition IC50,HDAC [4],~0.06 µg/mL
same,MIC80,"A. fumigatus ATCC 1022; Aspergillus fumigatus, ATCC1022, compound alone, A. fumigatus ATCC 1022, read-out: MIC80",64 to 128 µg/mL
same,conc. for 4-fold synergy,A. fumigatus ATCC 1022; [10],4 µg/mL
same,HDAC inhibition IC50,HDAC [5],0.01 µg/mL
same,MTT HMEC,HMEC [6],1 µM
same,HDAC inhibition IC50,HDAC [1],0.07 µg/mL
"CN(C/C=C/C#CC(C)(C)C)Cc1cccc2ccccc12 [Terbinafine, terbinafine, reference compound]",MIC,"C. albicans (ATCC 90028); Candida albicans, ATCC90028, terbinafine alone, C. albicans, read-out: Terbinafine MIC",0.39 µg/mL
CC(/C=C/C(=O)NO)=C\C(C)Cc1ccc(N(C)C)cc1 (stereo not drawn) [drawing 125],MTT HMEC,HMEC [6],44 µM
CC(/C=C/C(=O)NO)=C\C(C)Cc1ccc(N(C)C)cc1 (stereo not drawn) [drawing 131],conc. for 4-fold synergy (24 hr),"C. glabrata (ATCC 90030) [2]; with itraconazole, C. glabrata (ATCC 90030), 24 hr",1.56 (24 hr) μg/ml
same,MTT HMEC,HMEC [6],44 µM
CC(/C=C/C(=O)NO)=C\C(C)Cc1ccc(N(C)C)cc1 (stereo not drawn) [drawing 137],MTT HMEC,HMEC [6],44 µM
CC(/C=C/C(=O)NO)=C\C(C)Cc1ccc(N(C)C)cc1 (stereo not drawn) [drawing 143],MTT HMEC,HMEC [6]; Table 9 head,4.4e-05 µM
O=C(Cc1ccc(CCCCc2ccccc2)cc1)NO [drawing 144],MTT HMEC,HMEC [6]; Table 9 head,1.3e-05 µM
O=C(Cc1ccc(CCCc2ccccc2)cc1)NO [drawing 145],MTT HMEC,HMEC [6]; Table 9 head,4.7e-05 µM
O=C(CCc1ccc(CCCc2ccccc2)cc1)NO [drawing 146],MTT HMEC,HMEC [6]; Table 9 head,4e-05 µM
O=C(CCc1ccc(CCc2ccccc2)cc1)NO [drawing 147],MTT HMEC,HMEC [6]; Table 9 head,1e-05 µM
CC(/C=C/C(=O)NO)=C\C(C)Cc1ccc(N(C)C)cc1 (stereo not drawn) [drawing 148],conc. for 4-fold synergy,A. fumigatus ATCC 1022; [11],0.25 µg/mL
same,HDAC inhibition IC50,HDAC [5],2.0 µg/mL
same,MTT HMEC,HMEC [6],44 µM
O=C(Cc1ccc(CCCCc2ccccc2)cc1)NO [drawing 149],conc. for 4-fold synergy,A. fumigatus ATCC 1022; [11],>1 µg/mL
CC(/C=C/C(=O)NO)=C\C(C)Cc1ccc(N(C)C)cc1 (stereo not drawn) [drawing 150],conc. for 4-fold synergy,A. fumigatus ATCC 1022; [12],0.25 µg/mL
same,HDAC inhibition IC50,HDAC [5],2.0 µg/mL
same,MTT HMEC,HMEC [6],44 µM
O=C(Cc1ccc(CCCCc2ccccc2)cc1)NO [drawing 151],conc. for 4-fold synergy,A. fumigatus ATCC 1022; [12],>1 µg/mL
CC(/C=C/C(=O)NO)=C\C(C)Cc1ccc(N(C)C)cc1 (stereo not drawn) [drawing 152],conc. for 4-fold synergy,A. fumigatus ATCC 1022; [13],0.25 µg/mL
same,HDAC inhibition IC50,HDAC [5],2.0 µg/mL
same,MTT HMEC,HMEC [6],44 µM
O=C(Cc1ccc(CCCCc2ccccc2)cc1)NO [drawing 153],conc. for 4-fold synergy,A. fumigatus ATCC 1022; [13],1 µg/mL
OC(Cn1cncn1)(Cn1cncn1)c1ccc(F)cc1F [fluconazole],MIC,"C. dubliniensis; 48 h, read-out: FLU MIC",0.12 µg/mL
same,frequency of resistant C. glabrata mutants,C. glabrata (ATCC 90030) [7],5×10^−6
"C[C@@H](c1ncncc1F)[C@](O)(Cn1cncn1)c1ccc(F)cc1F [voriconazole, reference compound]",MIC,"C. dubliniensis; voriconazole alone, C. dubliniensis clinical isolates, CLSI M27-A2, 48 hour endpoint, read-out: VOR MIC",0.007 µg/mL
Oxamflatin [reference compound],MIC80,"C. albicans (ATCC 90028); compound alone, C. albicans (ATCC 90028)",>64 µg/mL
same,conc. for 4-fold synergy,"C. albicans (ATCC 90028); with ketoconazole, C. albicans (ATCC 90028), 48 hours",16 µg/mL
same,MIC80,"C. glabrata (ATCC 90030) [2]; compound alone, C. glabrata (ATCC 90030)",>64 µg/mL
same,conc. for 4-fold synergy,"C. glabrata (ATCC 90030) [2]; with ketoconazole, C. glabrata (ATCC 90030), 48 hours",128 µg/mL
same,HDAC inhibition IC50,HDAC [4],~7 µg/mL
same,MIC80,"A. fumigatus ATCC 1022; compound alone, A. fumigatus ATCC 1022",>128 µg/mL
same,conc. for 4-fold synergy,A. fumigatus ATCC 1022; [10],>128 µg/mL
same,HDAC inhibition IC50,HDAC [5],5.0 µg/mL
same,MTT HMEC,HMEC [6],2 µM
same,HDAC inhibition IC50,HDAC [1],>20 µg/mL
